Assay results taken from US20250163072A1, “MACROCYCLIC COMPOUNDS FOR THE TREATMENT OF CANCER” (Hoffmann-La Roche Inc., priority 2021, published 2025).

Tests used:
[1] = target: KRAS G12V binding to BRAF (Homo sapiens (Human), UniProt P01116+P62937, G12V); assay: KRAS-BRAF with CYPA (50 nM) interaction assay (TR-FRET), G12V; details: GMPPNP loaded 6His-KRAS, GST-BRAF RBD
Procedure: (§1) In this example, TR-FRET was also used to measure the compound or compound-CYPA dependent disruption of the KRAS G12C-BRAF complex. This protocol was also used to measure disruption of KRAS G12D or KRAS G12V binding to BRAF by a compound of the invention, respectively. In assay buffer containing 25 mM HEPES PH=7.4 (4-(2-hydroxyethyl)-1-piperazineethanesulfonic acid, Thermo, 15630080), 0.002% Tween20, 0.1% BSA, 100 mM NaCl, 5 mM MgCl2, 10 μM GMPPNP (Guanosine 5'-[β,γ-imido]triphosphate trisodium salt hydrate, Sigma, G0635), tagless CYPA, GMPPNP loaded 6His-KRAS proteins, and GST-BRAF^RBD were mixed in a well of a 384-well assay plate at final concentrations of 50 nM, 6.25 nM and 1 nM, respectively. Compound was present in plate wells as a 16-point 3-fold dilution series starting at a final concentration of 10 μM and incubated for 3 hours. A mixture of MAb Anti-6His-XL665 (Cisbio, 61HISXLB) and Mab anti-GST-TB cryptate (Cisbio, 61GSTTLB) was then added at a final concentration of 6.67 nM and 0.21 nM, respectively, and the plate was incubated for an additional 1.5 hours. TR-FRET signal was read on a […] microplate reader (Ex320 nm, Em 665/615 nm). Compounds that facilitate disruption of the KRAS-BRAF complex were identified as those eliciting a decrease in the TR-FRET ratio relative to DMSO control wells.

[2] = target: T1, KRAS G12C-BRAF complex (Homo sapiens (Human), UniProt P01116+P62937, G12C); assay: KRAS-BRAF with CYPA (50 nM) interaction assay (TR-FRET), G12C; type: binding; details: GMPPNP loaded 6His-KRAS, GST-BRAF RBD
T1 sequence (P01116-2 other isoform, or with tags, fused parts or gaps G12C): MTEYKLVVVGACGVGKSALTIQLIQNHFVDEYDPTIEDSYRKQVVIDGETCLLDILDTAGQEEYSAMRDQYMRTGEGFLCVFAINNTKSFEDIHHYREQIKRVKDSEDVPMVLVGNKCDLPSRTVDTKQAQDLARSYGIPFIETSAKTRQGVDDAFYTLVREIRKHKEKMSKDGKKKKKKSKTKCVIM
T1 sequence (P62937 whole entry): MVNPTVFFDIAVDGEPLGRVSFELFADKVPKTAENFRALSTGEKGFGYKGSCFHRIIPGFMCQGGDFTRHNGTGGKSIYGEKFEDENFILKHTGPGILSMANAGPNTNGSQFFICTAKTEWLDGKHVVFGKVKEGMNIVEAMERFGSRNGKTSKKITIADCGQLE
Procedure: as §1

[3] = target: T1, KRAS G12C-BRAF complex; assay: KRAS G12C-BRAF NanoBit assay; type: cell-based; details: HEK293 cells, SmBit-KRAS G12C and BRAF RBD-LgBit, 3 hours incubation
Procedure: This assay is to measure the ability of tested compounds in disruption of the KRAS G12C-BRAF complex at the cellular level, we established the NanoBit cellular assay in mammalian HEK293 (ATCC) cells. HEK293 cells were grown and maintained using DMEM medium (Thermo Fisher Scientific) with 10% fetal bovine serum and 1% penicillin/streptomycin. Both KRAS G12C and BRAF RBD were cloned into the NanoBit vectors ([…] vectors system, Promega) with the orientations SmBit-KRAS G12C and BRAF RBD-LgBit, respectively, and co-transfected into HEK293 cells. Cells were then selected with 100 μg/mL Hygromycin B (10687010, Thermo Fisher) and Blasticidin (5 μg/mL) for 4 weeks to get the stable cell pool. On the day of the assay, 75 nL of compound solution was presented in a 384-well assay plate as a 16-point 3-fold dilution starting from a final concentration of 30 μM in DMSO. Then cells were seeded at 10,000 cells/25 μL/well in a 384-well plate. After 3 hours of incubation, 6 μL of volume of Nano-Glo® Live Cell Substrate (Promega) was added into each well. Monitor luminescence using ultra384 model in Envision at 20 minutes. Compounds that facilitate disruption of the KRAS G12C-BRAF RBD complex were identified as those eliciting a decrease of luminescence relative to DMSO control wells.

[4] = target: KRAS G12D binding to BRAF (Homo sapiens (Human), UniProt P01116+P62937, G12D); assay: KRAS-BRAF with CYPA (50 nM) interaction assay (TR-FRET), G12D; details: GMPPNP loaded 6His-KRAS, GST-BRAF RBD
Sequence of KRAS G12D binding to BRAF (P01116-2 other isoform, or with tags, fused parts or gaps G12D): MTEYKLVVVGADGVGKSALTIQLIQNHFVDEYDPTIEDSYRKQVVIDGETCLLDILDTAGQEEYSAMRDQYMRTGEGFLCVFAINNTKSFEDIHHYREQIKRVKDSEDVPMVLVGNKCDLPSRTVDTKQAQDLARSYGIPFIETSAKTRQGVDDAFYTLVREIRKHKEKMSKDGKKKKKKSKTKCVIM
Sequence of KRAS G12D binding to BRAF (P62937 whole entry): as the sequence (P62937 whole entry) above
Procedure: as §1

[5] = system: SW620 cells; assay: Cell viability assay, SW620; type: cell-based, human; details: Homo sapiens, SW-620, SW620, 72 hours, Cell Counting Kit-8, read-out: G12V IC50
Summary of the method: (§2)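 Cells were plated at 5,000 (NCI-H358) or 2,000 (AGS, SW620) per well and incubated overnight. They were then treated with compound in 0.5% DMSO for 72 h. Viability was read with CCK-8 as OD450 minus OD650 after 2 h, and IC50 came from a 4-parameter sigmoidal fit.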

[6] = system: KRAS G12C in NCI-H358 cells; assay: pERK inhibition assay, NCI-H358; type: cell-based, human; details: Homo sapiens, 4 hours incubation
Summary of the method: (§3)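 NCI-H358, AGS and SW620 cells in RPMI-1640/10% FBS were plated overnight, then exposed to compound (0.5% DMSO final) for 4 h. After fixation and permeabilization, phospho-ERK was quantified by in-cell ELISA (HRP secondary, TMB, OD450); IC50 from a 4-parameter sigmoidal fit.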

[7] = system: AGS cells; assay: Cell viability assay, AGS; type: cell-based, human; details: Homo sapiens, 72 hours, Cell Counting Kit-8, read-out: G12D IC50
Summary of the method: as §2

[8] = system: KRAS G12V in SW620; assay: pERK inhibition assay, SW620; type: cell-based, human; details: Homo sapiens, SW-620, SW620 cells, 4 hours incubation
Summary of the method: as §3

[9] = system: NCI-H358 cells; assay: Cell viability assay, NCI-H358; type: cell-based, human; details: Homo sapiens, NCI-H358, 72 hours, Cell Counting Kit-8, read-out: G12C IC50
Summary of the method: as §2

[10] = system: KRAS G12D in AGS cells; assay: pERK inhibition assay, AGS; type: cell-based, human; details: Homo sapiens, 4 hours incubation
Summary of the method: as §3

[11] = GSH reaction rates (inherent GSH reactivity); type: in vitro ADME; details: for T1/2(hour) in GSH: potassium phosphate buffer pH 7.4
Procedure: Therefore Strategy to minimize the GSH metabolism is very critical. Short T1/2 in inherent GSH reaction indicated high GSH reaction rate. Thus T1/2 in inherent GSH reaction assay was determined for the screening of candidates. Reference compounds and compounds of this invention potentially could form conjugation with GSH either through halogenated moieties substitution reaction or direct Michael addition reaction. This test was therefore performed to check GSH reactivity of listed compounds. For inherent GSH reactivity determination, compounds at 1 μM were incubated at 37° C. with and without 5 mM GSH for 0, 0.5, 1, 2, 4 and 6 h in 100 mM potassium phosphate buffer at pH 7.4. At the end of the designated time points, samples were quenched with acetonitrile containing 10 mM N-ethylmaleimide and an internal standard. Quenched samples were centrifuged, and supernatants were analyzed by LC-MS/MS for compound quantification.

[12] = Human hepatocytes stability assay; type: in vitro ADME; details: for CL_hep (Human): 1 μM compound, human hepatocytes 1×10^6 cells/mL; for Clearance Category: human hepatocytes
Procedure: The hepatocyte stability assay measures the rate of disappearance of a compound from incubations with cryopreserved suspension hepatocytes from human. Positive controls, including Midazolam, Raloxifene and Dextromethorphan, are included in every experiment. Incubations consist of 1 μM tested compound and suspension of human hepatocytes (1×10^6 cells/mL) in supplemented Williams' E Medium with […] and 0.5% Penicillin-streptomycin. The hepatocyte suspension was incubated with intermittent shaking 900 rpm at 37° C., in a 5% CO2 incubator. The reaction was stopped by adding methanol containing internal standard (2 μM Tolbutamide) at 2, 10, 20, 40, 60 and 120 minutes after compound addition, depletion of the parent compound was monitored by LC-MS/MS analysis.

[13] = 1 μM compound, 5 mM GSH, 37° C., pH 7.4, 6 hr
[14] = 1 μM compound, 5 mM GSH, 37° C.

Sequence of KRAS G12V binding to BRAF (P01116-2 other isoform, or with tags, fused parts or gaps G12V): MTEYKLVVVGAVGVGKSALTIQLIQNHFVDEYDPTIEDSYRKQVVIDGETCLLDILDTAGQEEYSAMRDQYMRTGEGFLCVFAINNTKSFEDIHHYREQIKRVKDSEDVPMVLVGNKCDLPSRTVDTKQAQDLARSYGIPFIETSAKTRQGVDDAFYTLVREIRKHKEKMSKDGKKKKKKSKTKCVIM
Sequence of KRAS G12V binding to BRAF (P62937 whole entry): as the sequence (P62937 whole entry) above

| Compound | IC50 [1] [nM] | IC50 [2] [nM] | IC50 [3] [nM] | IC50 [4] [nM] | IC50 [5] [nM] | IC50 [6] [nM] | IC50 [7] [nM] | IC50 [8] [nM] | IC50 [9] [nM] | IC50 [10] [nM] | Remaining at 6 hr in GSH (%) [11, 13] [%] | T1/2(hour) in GSH [11, 14] | CL_hep (Human) [12] [mL/min/kg] | Clearance Category [12] | Remaining at 6 hr in GSH (%) ([11]; 6 h, 1 μM, pH 7.4) |
| --- | --- | --- | --- | --- | --- | --- | --- | --- | --- | --- | --- | --- | --- | --- | --- |
| CCn1c(-c2cc(N3CCN(C)CC3)cnc2[C@H](C)OC)c2c3cc(ccc31)-c1cc(O)cc(c1)C[C@H](NC(=O)[C@H](C(C)C)N(C)C(=O)[C@H]1CCN(C(=O)[C@H](F)Cl)C1)C(=O)N1CCC[C@H](N1)C(=O)OCC(C)(C)C2 (atropisomer, axis not shown; (M)) [Example 12, (3S)-1-[(2R)-2-chloro-2-fluoro-acetyl]-N-[(1S)-1-[[(8S,14S)-22-ethyl-4-hydroxy-(21M)-21-[2-[(1S)-1-methoxyethyl]-5-(4-methylpiperazin-1-yl)-3-pyridyl]-18,18-dimethyl-9,15-dioxo-16-oxa-10,22,28-triazapentacyclo[18.5.2.12,6.110,14.023,27]nonacosa-1(26),2,4,6(29),20,23(27),24-heptaen-8-yl]carbamoyl]-2-methyl-propyl]-N-methyl-pyrrolidine-3-carboxamide] | 3 | 2 | 37 | 6 | 16 | 6 | 16 | 12 | 5 | 10 | – | – | – | – | – |
| CO[C@@H](C)c1ncc(N2CCN(C)CC2)cc1-c1c2c3cc(ccc3n1CC(F)(F)F)-c1csc(n1)C[C@H](NC(=O)[C@H](C(C)C)N(C)C(=O)[C@H]1CCN(C(=O)[C@H](F)Cl)C1)C(=O)N1CCC[C@H](N1)C(=O)OCC(C)(C)C2 (atropisomer, axis not shown; (M)) [Example 21, (3S)-1-[(2R)-2-chloro-2-fluoro-acetyl]-N-[(1S)-1-[[(7S,13S)-(20M)-20-[2-[(1S)-1-methoxyethyl]-5-(4-methylpiperazin-1-yl)-3-pyridyl]-17,17-dimethyl-8,14-dioxo-21-(2,2,2-trifluoroethyl)-15-oxa-4-thia-9,21,27,28-tetrazapentacyclo[17.5.2.12,5.19,13.022,26]octacosa-1(25),2,5(28),19,22(26),23-hexaen-7-yl]carbamoyl]-2-methyl-propyl]-N-methyl-pyrrolidine-3-carboxamide] | > 10000 | 21 | – | > 10000 | 8 | 1 | 44 | 5 | 0.3 | 14 | 88 | stable (If % depletion after 6 hour incubation is less than 20%, compounds were reported as stable) | <2.4 | low (CL_hep (mL/min/kg)<6.96 is low clearance) | – |
| CCn1c(-c2cc(N3CCN(C)CC3)cnc2[C@H](C)OC)c2c3cc(ccc31)-c1csc(n1)C[C@H](NC(=O)[C@H](C(C)C)N(C)C(=O)[C@H]1CCN(C(=O)[C@H](F)Cl)C1)C(=O)N1CCCC(N1)C(=O)OCC(C)(C)C2 (stereo partly drawn) [Example 10, (3S)-1-[(2R)-2-chloro-2-fluoro-acetyl]-N-[(1S)-1-[[(7S,13S)-21-ethyl-(20M)-20-[2-[(1S)-1-methoxyethyl]-5-(4-methylpiperazin-1-yl)-3-pyridyl]-17,17-dimethyl-8,14-dioxo-15-oxa-4-thia-9,21,27,28-tetrazapentacyclo[17.5.2.12,5.19,13.022,26]octacosa-1(25),2,5(28),19,22(26),23-hexaen-7-yl]carbamoyl]-2-methyl-propyl]-N-methyl-pyrrolidine-3-carboxamide] | – | – | 21 | – | 59 | 3 | 52 | 11 | 0.4 | 31 | – | – | <2.4 | low (CL_hep (mL/min/kg)<6.96 is low clearance) | 85 |
| CO[C@@H](C)c1ncc(N2CCN(C)CC2)cc1-c1c2c3cc(ccc3n1CC(F)(F)F)-c1csc(n1)C[C@H](NC(=O)[C@H](C(C)C)N1CCCC3(CCN(C(=O)[C@H](F)Cl)C3)C1=O)C(=O)N1CCC[C@H](N1)C(=O)OCC(C)(C)C2 (stereo partly drawn) [Example 19, (2S)-2-[2-[(2R)-2-chloro-2-fluoro-acetyl]-6-oxo-2,7-diazaspiro[4.5]decan-7-yl]-N-[(7S,13S)-(20M)-20-[2-[(1S)-1-methoxyethyl]-5-(4-methylpiperazin-1-yl)-3-pyridyl]-17,17-dimethyl-8,14-dioxo-21-(2,2,2-trifluoroethyl)-15-oxa-4-thia-9,21,27,28-tetrazapentacyclo[17.5.2.12,5.19,13.022,26]octacosa-1(25),2,5(28),19,22(26),23-hexaen-7-yl]-3-methyl-butanamide] | – | – | 21 | – | 15 | 3 | 18 | 8 | 0.9 | 28 | 85 | stable (If % depletion after 6 hour incubation is less than 20%, compounds were reported as stable) | 10.1 | medium (16.24<CL_hep (mL/min/kg)>6.96 is medium clearance) | – |
